“And” between values parts separate entries of the source, which are not always exact repeats. Equal values may be shown once. Read-outs that look alike come from different tables or passages of the source.
Columns and labels:
[1] = tested on: 5-HT6R-operated Cdk5 signaling; assay: Cdk5-dependent neurite growth in NG108-15 cells transiently expressing 5-HT6R; assay type: cell-based; conditions: NG108-15 cells expressing 5-HT6R; for neurite length: treatment for 24 h (legend says 48 h), vehicle 16.95 ± 1.5 μm
Procedure: NG108-15 cells were transfected with plasmids encoding either cytosolic GFP or a GFP-tagged 5-HT6R and grown on glass coverslips for 6 h. Then, cells were treated with either vehicle or the evaluated compounds. Neurite growth was measured on cells imaged using an AxioImagerZ1 microscope equipped with epifluorescence (Zeiss) using the Neuron J plugin of the ImageJ software (NIH). A detailed description is reported in the Supporting Information.
3. Procedure for evaluation of the effect of tested compounds on Cdk5-dependent neurite
In line with previously reported methods, NG108-15 cells were transfected with plasmids encoding either cytosolic GFP or a GFP-tagged 5-HT6R in suspension using Lipofectamine 2000 (Life technologies) and plated on glass coverslips. Six hours after transfection, cells were treated with either DMSO (control), 3e, 3f and 3g or SB-258585 for 48 h. Cells were fixed in 4% paraformaldehyde (PFA) supplemented with 4% sucrose for 10 min. PFA fluorescence was quenched by incubating the cells in PBS containing 0.1 M glycine, prior to mounting in Prolong Gold antifade reagent (Thermo Fisher Scientific). Cells were imaged using an AxioImagerZ1 microscope equipped with epifluorescence (Zeiss), using a 20 × objective for cultured cells, and neurite length was assessed using the Neuron J plugin of the ImageJ software (NIH).

5-HT6R = 5-HT6R (Homo sapiens, UniProt P50406); assay: Radioligand binding, [3H]-LSD displacement, HEK-293 cells; set-up: expressed in transfected cells; conditions: three independent binding experiments
5-HT6R, sequence (P50406 whole entry): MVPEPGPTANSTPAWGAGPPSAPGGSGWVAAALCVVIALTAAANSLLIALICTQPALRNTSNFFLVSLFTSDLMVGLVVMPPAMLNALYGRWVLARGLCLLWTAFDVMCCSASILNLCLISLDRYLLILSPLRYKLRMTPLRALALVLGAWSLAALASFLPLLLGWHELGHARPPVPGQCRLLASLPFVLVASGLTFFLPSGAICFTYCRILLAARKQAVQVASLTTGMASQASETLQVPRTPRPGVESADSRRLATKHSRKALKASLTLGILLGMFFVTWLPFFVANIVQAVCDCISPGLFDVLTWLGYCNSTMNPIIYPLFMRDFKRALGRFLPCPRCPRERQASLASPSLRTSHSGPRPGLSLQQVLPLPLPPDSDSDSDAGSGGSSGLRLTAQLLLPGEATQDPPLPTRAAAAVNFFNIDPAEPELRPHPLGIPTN
Procedure: All experiments were performed in HEK-293 cells, which stably express the human 5-HT1A, 5-HT6, 5-HT7b, and D2L receptors, or using CHO-K1 cells expressing human serotonin 5-HT2A receptor, following the previously reported procedures. For displacement studies, the following radioligands (PerkinElmer, USA) at given concentrations were used at: 2.5 nM [^3H]-8-OH-DPAT (135.2 Ci/ mmol); 1 nM [^3H]-ketanserin (53.4 Ci/mmol); 2 nM [^3H]-LSD (83.6 Ci/mmol); 0.8 nM [^3H]-5-CT (39.2 Ci/mmol) or 2.5 nM [^3H]-raclopride (76.0 Ci/mmol) for 5-HT1A, 5-HT2A, 5-HT6, 5-HT7b and D2L receptors, respectively. All tested compounds were evaluated in triplicate at 7 concentrations (10^−10–10^−4 M). The inhibition constants (Ki) were calculated from the Cheng–Prusoff equation [25]. A detailed description is reported in the Supporting Information.
All synthesized compounds were evaluated in ^3[H]-LSD competition binding experiments for their affinity for 5-HT6R expressed in HEK-293 cells (Table 1). Embedding the sulfonamide moiety into an unsubstituted isoindoline scaffold was sufficient to provide potent compounds 3a and 3e. […] This effect might result from the favorable localization of the bromine atom at the isoindoline fragment, which enabled compound 3k to adopt an optimal position in the receptor binding pocket via the formation of hydrophobic/steric interactions.
1. Procedure for radioligand binding assay
All experiments were carried out according to the previously published procedures. HEK293 cells stably expressing human 5-HT1A, 5-HT6, 5-HT7b and D2L receptors (prepared with the use of Lipofectamine 2000) or CHO-K1 cells with plasmid containing the sequence coding for the human serotonin 5-HT2A receptor (Perkin Elmer) were maintained at 37 °C in a humidified atmosphere containing 5% CO2 and grown in Dulbecco’s Modified Eagle’s Medium containing 10% dialyzed fetal bovine serum and 500 μg/ml G418 sulfate. For membrane preparation, cells were cultured in 150 cm2 flasks, grown to 90% confluence, washed twice with pre-warmed to 37 °C phosphate buffered saline (PBS) and centrifuged (200 × g) in PBS containing 0.1 mM EDTA and 1 mM dithiothreitol. Prior to membrane preparation, pellets were stored at –80 °C. Cell pellets were thawed and homogenized in 10 volumes of assay buffer using an Ultra Turrax tissue homogenizer and centrifuged twice at 35,000 × g for 15 min at 4 °C, with incubation for 15 min at 37 °C between the centrifugations. The composition of the assay buffers was experimentally selected to achieve the […]
5-HT1AR: 50 mM Tris HCl, 0.1 mM EDTA, 4 mM MgCl2, 10 μM pargyline and 0.1% ascorbate; 5-HT2AR: 50 mM Tris HCl, 0.1 mM EDTA, 4 mM MgCl2 and 0.1% ascorbate;
5-HT6R: 50 mM Tris HCl, 0.5 mM EDTA and 4 mM MgCl2; 5-HT7bR: 50 mM Tris HCl, 4 mM MgCl2, 10 μM pargyline and 0.1% ascorbate; D2LR: 50 mM Tris HCl, 1 mM EDTA, 4 mM MgCl2, 120 mM NaCl, 5 mM KCl, 1.5 mM CaCl2 and 0.1% ascorbate).
All assays were carried out in a total volume of 200 μL in 96-well plates for 1 h at 37 °C, except 5-HT1AR and 5-HT2AR which were incubated at room temperature and 27 °C, respectively.
The process of equilibration was terminated by rapid filtration through Unifilter plates with a 96-well cell harvester and radioactivity retained on the filters was quantified on a Microbeta plate reader (PerkinElmer, USA). For displacement studies the assay samples contained as radioligands (PerkinElmer, USA): 2.5 nM [3H]-8-OH-DPAT (135.2 Ci/ mmol) for 5-HT1AR; 1 nM [3H]-ketanserin (53.4 Ci/mmol) for 5-HT2AR; 2 nM [3H]-LSD (83.6 Ci/mmol) for 5-HT6R; 0.8 nM [3H]-5-CT (39.2 Ci/mmol) for 5-HT7R or 2.5 nM [3H]-raclopride (76.0 Ci/mmol) for D2LR. Non-specific binding was defined in the presence of 10 μM of 5-HT in 5-HT1AR and 5-HT7R binding experiments, 20 μM of mianserin for 5-HT2AR, 10 μM of methiothepine for 5-HT6R or 10 μM of haloperidol for D2LR bidning assays. Each compound was tested in triplicate at 7 concentrations (10-10–10-4 M). The inhibition constants (Ki) were calculated […]

[2] = Table 1, HEK293 cells, read-out: Ki [nM] ± SEM at the 5-HT6R
[3] = Table 2, mean ± SEM, read-out: 5-HT6R Ki

Structure (SMILES) | neurite length [1] | Ki (5-HT6R; [2]) | Ki (5-HT6R; [3]) | reduction in neurite growth ([1]; vs vehicle-treated cells) | functional profile at the 5-HT6R-elicited Cdk5 pathway ([1]; neurite growth)
O=S(=O)(c1cccc(N2CCNCC2)c1)N1Cc2ccccc2C1 [3e, 2-{[3-(Piperazin-1-yl)phenyl]sulfonyl}isoindoline] | 11.81 ± 2.61 μm | < 5 nM | 2 ± 0.2 nM | – | –
O=S(=O)(c1cccc(N2CCNCC2)c1)N1Cc2cccc(Cl)c2C1 [3f, 4-Chloro-2-{[3-(piperazin-1-yl)phenyl]sulfonyl}isoindoline] | 10.92 ± 0.89 μm | < 5 nM and 1 nM | 1 ± 0.2 nM | – | –
O=S(=O)(c1cccc(N2CCNCC2)c1)N1Cc2cccc(Br)c2C1 [3g, 4-Bromo-2-{[3-(piperazin-1-yl)phenyl]sulfonyl}isoindoline] | 8.08 ± 0.84 μm | < 5 nM and 1 nM | 1 ± 0.4 nM | 50% | potent inverse agonist

— PMC9855333, “1-(Arylsulfonyl-isoindol-2-yl)piperazines as 5-HT6R Antagonists: Mechanochemical Synthesis, In Vitro Pharmacological Properties and Glioprotective Activity” (Biomolecules, 2022)
